Experimental findings from ChEMBL document CHEMBL1153825, “From a natural product lead to the identification of potent and selective benzofuran-3-yl-(indol-3-yl)maleimides as glycogen synthase kinase 3beta inhibitors that suppress proliferation and survival of pancreatic cancer cells” (J Med Chem, 2009) are described below.

One may read the IC50 as the concentration needed to halve the response being measured. Read a low IC50 as inhibition by little substance.

Assay [1] has as its target Glycogen synthase kinase-3 beta (Homo sapiens, UniProt P49841). In words: Inhibition of human GSK3-beta by scintillation counting.
The test system of another assay is BXPC-3. In words: Growth inhibition of human BxPC3 cells after 72 hrs by MTS assay. The conditions noted are these: BXPC-3, 72 h. It counts as functional, cell-based. (In general: Formazan colour is commonly taken as a measure of viable cells.)
The next assay concerns HuP-T3. The experiment in a line: Growth inhibition of human HUPT3 cells after 72 hrs by MTS assay. The assay is classed as functional, cell-based. The conditions noted are these: HuP-T3, 72 h.
The subject of another assay is MIA PaCa-2. In words: Growth inhibition of human MIAPaCa2 cells after 72 hrs by MTS assay. The assay is classed as functional, cell-based. The conditions noted are these: MIA PaCa-2, 72 h.
Assay [2] concerns the target T1, Cyclin-dependent kinase 2 (Homo sapiens, UniProt P24941).
The target in assay [3] is RAC-gamma serine/threonine-protein kinase (Homo sapiens, UniProt Q9Y243). The experiment in a line: Inhibition of AKT3 up to 50 uM.
The target of assay [4] is T1, Cyclin-dependent kinase 2. The source holds these as a separate data set.
Assay [5] has as its target T2, Serine/threonine-protein kinase Chk1 (Homo sapiens, UniProt O14757).
T2 sequence (O14757 whole entry): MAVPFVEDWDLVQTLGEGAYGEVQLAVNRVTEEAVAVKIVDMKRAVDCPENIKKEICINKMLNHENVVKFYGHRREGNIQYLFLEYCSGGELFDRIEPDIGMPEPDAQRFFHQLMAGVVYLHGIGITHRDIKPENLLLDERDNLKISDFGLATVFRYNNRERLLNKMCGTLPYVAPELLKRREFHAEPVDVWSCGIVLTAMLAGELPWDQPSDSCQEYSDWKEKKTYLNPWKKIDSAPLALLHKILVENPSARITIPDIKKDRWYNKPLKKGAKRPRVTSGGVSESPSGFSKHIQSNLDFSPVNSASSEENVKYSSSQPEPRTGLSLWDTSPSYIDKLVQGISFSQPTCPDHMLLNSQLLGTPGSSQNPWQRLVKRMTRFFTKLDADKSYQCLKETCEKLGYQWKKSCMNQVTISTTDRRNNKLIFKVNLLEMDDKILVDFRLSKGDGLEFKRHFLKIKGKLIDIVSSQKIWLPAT
The experiment in a line: Inhibition of CHK1.

The target of assay [6] is T3, Inhibitor of nuclear factor kappa-B kinase subunit alpha (Homo sapiens, UniProt O15111).
T3 sequence (O15111 whole entry): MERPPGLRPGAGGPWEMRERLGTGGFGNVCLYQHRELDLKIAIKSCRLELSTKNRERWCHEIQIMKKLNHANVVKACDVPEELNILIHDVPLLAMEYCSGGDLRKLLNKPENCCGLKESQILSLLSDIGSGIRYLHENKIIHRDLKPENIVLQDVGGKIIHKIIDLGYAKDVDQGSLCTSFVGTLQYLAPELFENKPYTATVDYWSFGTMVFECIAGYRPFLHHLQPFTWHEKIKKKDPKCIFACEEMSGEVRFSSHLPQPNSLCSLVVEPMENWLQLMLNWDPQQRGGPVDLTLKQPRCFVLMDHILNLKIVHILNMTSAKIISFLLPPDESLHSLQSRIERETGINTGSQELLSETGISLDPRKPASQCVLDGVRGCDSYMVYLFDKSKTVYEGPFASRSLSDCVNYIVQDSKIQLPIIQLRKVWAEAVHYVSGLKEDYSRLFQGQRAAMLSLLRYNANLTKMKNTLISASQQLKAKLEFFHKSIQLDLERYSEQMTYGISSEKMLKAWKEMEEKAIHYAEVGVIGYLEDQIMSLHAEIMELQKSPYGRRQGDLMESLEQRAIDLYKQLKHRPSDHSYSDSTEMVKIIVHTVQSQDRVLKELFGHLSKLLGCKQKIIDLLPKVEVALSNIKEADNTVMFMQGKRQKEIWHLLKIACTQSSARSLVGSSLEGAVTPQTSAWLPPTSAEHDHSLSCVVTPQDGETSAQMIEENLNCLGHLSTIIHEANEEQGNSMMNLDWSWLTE

In assay [7] the target is T4, Inhibitor of nuclear factor kappa-B kinase subunit beta (Homo sapiens, UniProt O14920).
T4 sequence (O14920 whole entry): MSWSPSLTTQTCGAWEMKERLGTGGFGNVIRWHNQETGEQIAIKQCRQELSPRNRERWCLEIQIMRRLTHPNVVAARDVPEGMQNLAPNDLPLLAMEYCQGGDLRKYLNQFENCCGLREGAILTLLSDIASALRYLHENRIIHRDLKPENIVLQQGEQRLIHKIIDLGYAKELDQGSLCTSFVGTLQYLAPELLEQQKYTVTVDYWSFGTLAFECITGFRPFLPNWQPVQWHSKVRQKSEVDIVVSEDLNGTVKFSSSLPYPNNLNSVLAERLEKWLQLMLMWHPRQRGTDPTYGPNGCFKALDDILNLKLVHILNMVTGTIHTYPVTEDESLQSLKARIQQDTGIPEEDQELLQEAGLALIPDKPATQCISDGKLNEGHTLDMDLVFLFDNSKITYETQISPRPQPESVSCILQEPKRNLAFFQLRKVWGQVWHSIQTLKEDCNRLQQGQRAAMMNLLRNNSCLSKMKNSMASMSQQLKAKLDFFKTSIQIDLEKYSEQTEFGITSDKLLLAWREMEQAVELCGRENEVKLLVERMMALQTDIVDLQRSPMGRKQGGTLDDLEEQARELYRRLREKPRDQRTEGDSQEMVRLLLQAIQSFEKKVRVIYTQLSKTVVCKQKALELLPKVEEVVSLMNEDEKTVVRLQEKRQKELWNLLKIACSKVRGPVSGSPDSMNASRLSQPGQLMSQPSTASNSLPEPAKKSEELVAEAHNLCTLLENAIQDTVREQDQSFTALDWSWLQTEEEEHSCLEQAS
The experiment in a line: Inhibition of IKK-beta up to 50 uM.

The target of assay [8] is RAF proto-oncogene serine/threonine-protein kinase (Homo sapiens, UniProt P04049). The experiment in a line: Inhibition of cRAF up to 50 uM.
Assay [9] has as its target Cyclin-dependent kinase 1/cyclin B1 (Homo sapiens, UniProt P06493). The experiment in a line: Inhibition of CDK1/Cyclin B. The assay is classed as protein-complex assay.
Assay [10] concerns the target Mitogen-activated protein kinase 3 (Homo sapiens, UniProt P27361). The experiment in a line: Inhibition of ERK1 up to 50 uM.

Chain of Glycogen synthase kinase-3 beta (P49841 whole entry): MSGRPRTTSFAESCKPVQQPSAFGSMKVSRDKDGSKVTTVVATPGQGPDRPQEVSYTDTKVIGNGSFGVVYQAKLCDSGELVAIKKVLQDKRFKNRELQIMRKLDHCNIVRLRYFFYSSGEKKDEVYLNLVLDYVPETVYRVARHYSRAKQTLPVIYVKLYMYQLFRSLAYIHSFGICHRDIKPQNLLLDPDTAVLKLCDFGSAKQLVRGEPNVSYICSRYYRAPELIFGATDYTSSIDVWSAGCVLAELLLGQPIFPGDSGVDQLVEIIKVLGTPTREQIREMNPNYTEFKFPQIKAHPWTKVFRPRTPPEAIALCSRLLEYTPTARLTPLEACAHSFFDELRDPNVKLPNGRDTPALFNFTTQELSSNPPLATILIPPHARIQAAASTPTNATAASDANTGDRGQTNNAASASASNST
Chain of Mitogen-activated protein kinase 3 (P27361 whole entry): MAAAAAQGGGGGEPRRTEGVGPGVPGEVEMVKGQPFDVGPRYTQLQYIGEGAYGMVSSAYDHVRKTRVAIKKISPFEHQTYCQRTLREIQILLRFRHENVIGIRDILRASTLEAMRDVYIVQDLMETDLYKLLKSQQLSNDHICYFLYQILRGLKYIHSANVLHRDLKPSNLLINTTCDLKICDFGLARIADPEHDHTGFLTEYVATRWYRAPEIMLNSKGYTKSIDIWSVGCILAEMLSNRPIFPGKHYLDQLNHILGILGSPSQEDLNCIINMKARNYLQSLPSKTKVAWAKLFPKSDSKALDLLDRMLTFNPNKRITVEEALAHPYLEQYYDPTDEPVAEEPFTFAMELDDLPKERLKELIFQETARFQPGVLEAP
Chain of RAF proto-oncogene serine/threonine-protein kinase (P04049 whole entry): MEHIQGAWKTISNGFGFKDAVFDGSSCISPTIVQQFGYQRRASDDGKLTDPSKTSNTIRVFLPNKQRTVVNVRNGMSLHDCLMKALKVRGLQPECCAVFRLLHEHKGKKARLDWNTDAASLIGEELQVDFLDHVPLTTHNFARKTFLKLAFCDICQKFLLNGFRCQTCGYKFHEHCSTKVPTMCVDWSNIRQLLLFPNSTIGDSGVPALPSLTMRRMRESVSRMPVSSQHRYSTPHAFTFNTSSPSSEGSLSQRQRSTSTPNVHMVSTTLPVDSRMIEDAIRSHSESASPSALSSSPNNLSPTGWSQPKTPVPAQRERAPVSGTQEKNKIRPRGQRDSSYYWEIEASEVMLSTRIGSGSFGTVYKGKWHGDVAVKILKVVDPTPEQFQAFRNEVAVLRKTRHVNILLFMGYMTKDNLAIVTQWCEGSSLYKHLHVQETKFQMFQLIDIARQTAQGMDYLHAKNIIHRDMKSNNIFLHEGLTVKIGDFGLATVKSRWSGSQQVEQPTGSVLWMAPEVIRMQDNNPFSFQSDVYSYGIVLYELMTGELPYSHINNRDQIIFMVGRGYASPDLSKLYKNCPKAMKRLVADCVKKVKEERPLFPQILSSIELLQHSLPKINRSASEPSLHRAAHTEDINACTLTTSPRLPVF
Chain of RAC-gamma serine/threonine-protein kinase (Q9Y243 whole entry): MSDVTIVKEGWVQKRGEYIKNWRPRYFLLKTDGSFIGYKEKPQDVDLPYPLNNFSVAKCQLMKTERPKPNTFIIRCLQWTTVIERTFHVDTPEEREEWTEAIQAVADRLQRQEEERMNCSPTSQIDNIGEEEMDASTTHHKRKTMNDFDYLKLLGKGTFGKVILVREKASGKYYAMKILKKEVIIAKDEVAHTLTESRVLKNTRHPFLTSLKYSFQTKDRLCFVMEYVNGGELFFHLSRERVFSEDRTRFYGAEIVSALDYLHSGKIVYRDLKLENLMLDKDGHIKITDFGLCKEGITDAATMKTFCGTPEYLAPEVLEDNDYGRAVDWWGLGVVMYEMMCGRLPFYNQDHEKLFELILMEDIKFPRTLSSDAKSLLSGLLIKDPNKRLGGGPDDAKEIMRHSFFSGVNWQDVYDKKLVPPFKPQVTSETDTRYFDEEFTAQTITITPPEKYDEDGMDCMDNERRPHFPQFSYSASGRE
Chain of Cyclin-dependent kinase 1/cyclin B1 (P06493 whole entry): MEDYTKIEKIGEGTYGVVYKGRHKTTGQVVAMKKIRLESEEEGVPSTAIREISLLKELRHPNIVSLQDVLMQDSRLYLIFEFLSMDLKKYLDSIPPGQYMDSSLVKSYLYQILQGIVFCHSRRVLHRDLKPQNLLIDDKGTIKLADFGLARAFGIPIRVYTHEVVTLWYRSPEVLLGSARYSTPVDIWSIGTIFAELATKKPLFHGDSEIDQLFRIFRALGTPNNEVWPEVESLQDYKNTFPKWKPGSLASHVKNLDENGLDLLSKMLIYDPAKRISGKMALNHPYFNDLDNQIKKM
Chain of Cyclin-dependent kinase 1/cyclin B1 (P14635 whole entry, further chain): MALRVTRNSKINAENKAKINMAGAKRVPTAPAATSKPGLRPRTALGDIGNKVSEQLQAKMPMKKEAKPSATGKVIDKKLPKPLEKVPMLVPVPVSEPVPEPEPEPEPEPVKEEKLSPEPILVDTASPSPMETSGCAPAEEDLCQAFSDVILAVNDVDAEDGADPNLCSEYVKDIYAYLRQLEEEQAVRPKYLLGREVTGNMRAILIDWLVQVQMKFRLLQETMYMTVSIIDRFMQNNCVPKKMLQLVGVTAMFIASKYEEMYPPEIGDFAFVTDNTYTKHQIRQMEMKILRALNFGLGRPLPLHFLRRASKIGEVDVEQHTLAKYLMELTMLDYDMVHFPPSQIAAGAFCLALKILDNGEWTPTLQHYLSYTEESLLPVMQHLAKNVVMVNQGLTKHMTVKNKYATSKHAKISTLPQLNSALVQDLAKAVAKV

`COc1ccc2c(C3=C(c4cn(C)c5cc(Cl)c(F)cc45)C(=O)NC3=O)coc2c1`: in assay [1], the IC50 stood at 0.87 µM.
In [1], `Cn1cc(C2=C(c3coc4cc(CO)ccc34)C(=O)NC2=O)c2cc(Br)ccc21` registered an IC50 of 0.00051 µM.
For the compound `COc1ccc(CNC(=O)Nc2ncc([N+](=O)[O-])s2)cc1`, the IC50 was 14 µM in the assay with BXPC-3, 22 µM in the assay with HuP-T3 and 29 µM in the assay with MIA PaCa-2.
On to `Cn1cc(C2=C(c3coc4ccccc34)C(=O)NC2=O)c2cc(I)ccc21`, for which the results for the half-inhibitory concentration (IC50) (in assay [1]; in the assay on HuP-T3) were 0.0345 µM and more than 50 µM, respectively.
With `COCc1cccc2c(C3=C(c4coc5ccccc45)C(=O)NC3=O)cn(C)c12`, the IC50 in the assay on BXPC-3 and with MIA PaCa-2 was more than 50 µM in each case.
The compound `Cn1cc(C2=C(c3ccc(Cl)cc3Cl)C(=O)NC2=O)c2ccccc21` [SB-216763] had an IC50 in the assay with MIA PaCa-2 of 25 µM.
`Cn1cc(C2=C(c3coc4cc(OCC5CCC5)ccc34)C(=O)NC2=O)c2cc(F)c(Cl)cc21` displayed an IC50 in [1] of 4.09 µM.
In the case of `COc1cc2c(C3=C(c4coc5ccccc45)C(=O)NC3=O)cn(C)c2cc1Cl`, the IC50 in the assay with BXPC-3, in the assay on HuP-T3 and in the assay on MIA PaCa-2 was more than 50 µM each time.
As to `Cn1cc(C2=C(c3coc4ccc(F)cc34)C(=O)NC2=O)c2cc(C#CC3CC3)ccc21`, the values for the IC50 in the assay with BXPC-3, in the assay with HuP-T3 and in the assay with MIA PaCa-2 were more than 50 µM, more than 50 µM and 34 µM, respectively.
With `Cn1cc(C2=C(c3coc4cc(OCC5CC5)ccc34)C(=O)NC2=O)c2cc(F)c(Cl)cc21`, the IC50 in assay [1] was found to be 1.29 µM.
Regarding `Cn1cc(C2=C(c3coc4ccccc34)C(=O)NC2=O)c2cc(Br)ccc21`, the IC50 turned out to be 43 µM in the assay on HuP-T3 and 30 µM in the assay with MIA PaCa-2.
For the compound `Cn1cc(C2=C(c3coc4ccc(F)cc34)C(=O)NC2=O)c2cc(Cl)ccc21`, in assay [1], the IC50 amounted to 0.042 µM.
Turning to `COc1cccc2c(C3=C(c4cn(C)c5ccc(Br)cc45)C(=O)NC3=O)coc12`, the IC50 in assay [1] was found to be 0.0075 µM; in [2], 1.16 µM.
Consider `COc1cccc2c(C3=C(c4cn(C)c5cc(C(F)(F)F)ccc45)C(=O)NC3=O)coc12`, for which the results for the IC50 with BXPC-3, in the assay on HuP-T3 and in the assay with MIA PaCa-2 were 6 µM, 6 µM and 8 µM, respectively.
On to `COc1cccc2c(C3=C(c4cn(C)c5cc(I)c(F)cc45)C(=O)NC3=O)coc12`, for which the IC50 entry in assay [3] is “Not Active”; in [4], more than 50 µM; in assay [5] it was more than 50 µM; in [6], more than 50 µM; in assay [2], more than 50 µM; in assay [7] it was “Not Active”. The values for the IC50 result in [8], in [9] and in assay [10] were “Not Active”, more than 50 µM and “Not Active”, respectively.
With `Cn1cc(C2=C(c3coc4ccccc34)C(=O)NC2=O)c2cc(F)c(Cl)cc21`, the IC50 in the assay on BXPC-3 is 2 µM; with HuP-T3, 2 µM; in the assay with MIA PaCa-2, 3 µM.
Regarding `Cn1cc(C2=C(c3coc4cc(F)c(F)cc34)C(=O)NC2=O)c2ccc3ccccc3c21`, the IC50 with BXPC-3 amounted to 7 µM; in the assay with HuP-T3 it was 6 µM; with MIA PaCa-2, 17 µM.
